Source: patent US20260144788A1, “COMPOUND FOR SHP2 PROTEIN DEGRADATION AND MEDICAL USES THEREOF” (UBIX THERAPEUTICS, INC., priority 2022, published 2026)

Target: T1, SHP2 protein (Homo sapiens, UniProt Q06124)
T1 sequence (Q06124 1-593): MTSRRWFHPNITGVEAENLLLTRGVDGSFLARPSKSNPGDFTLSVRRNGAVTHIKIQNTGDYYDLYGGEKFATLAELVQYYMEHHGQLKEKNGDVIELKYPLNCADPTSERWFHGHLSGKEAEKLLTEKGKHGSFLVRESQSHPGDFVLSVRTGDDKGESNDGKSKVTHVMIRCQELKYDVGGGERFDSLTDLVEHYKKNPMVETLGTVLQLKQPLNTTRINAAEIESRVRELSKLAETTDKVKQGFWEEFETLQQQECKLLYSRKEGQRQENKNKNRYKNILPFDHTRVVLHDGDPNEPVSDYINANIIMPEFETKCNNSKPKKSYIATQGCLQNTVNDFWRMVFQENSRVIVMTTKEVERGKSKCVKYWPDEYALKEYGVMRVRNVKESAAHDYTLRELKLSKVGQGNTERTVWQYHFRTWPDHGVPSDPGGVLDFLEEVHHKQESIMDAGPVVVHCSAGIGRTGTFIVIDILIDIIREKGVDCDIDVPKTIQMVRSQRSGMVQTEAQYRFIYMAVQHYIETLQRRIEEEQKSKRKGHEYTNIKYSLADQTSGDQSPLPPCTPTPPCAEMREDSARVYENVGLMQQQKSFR
Assay: Measurement of SHP2 protein degradation in NCI-H358 cells (western blotting)
Assay type: cell-based
Set-up: endogenous in cells; host or cells: NCI-H358
Details: harvested after 24 hours
Procedure, shortened: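 H358 cells in RPMI1640/25 mM HEPES/10% FBS, cultured 24 h, then exposed to compound at final 0.001, 0.01 and 0.1 μM for 24 h against a DMSO control. Lysates were normalised for protein by BCA and probed by western blot for SHP2, with GAPDH as loading control.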

| Compound | SHP2% degradation (0.01 μM) [%] | SHP2% degradation (0.1 μM) [%] |
| --- | --- | --- |
| Cc1cc(C(C(=O)N2C[C@H](O)C[C@H]2C(=O)NCc2ccc(-c3scnc3C)cc2OC2CCN(C(=O)C3CCN(c4nccc(Sc5cnc(N6CCC(C)(N)CC6)c(CO)n5)c4Cl)CC3)CC2)C(C)C)on1 (stereo partly drawn) [Example 97, (2S,4R)—N-(2-((1-(1-(4-((5-(4-amino-4-methylpiperidin-1-yl)-6-(hydroxymethyl)pyrazin-2-yl)thio)-3-chloropyridin-2-yl)piperidine-4-carbonyl)piperidin-4-yl)oxy)-4-(4-methylthiazol-5-yl)benzyl)-4-hydroxy-1-(3-methyl-2-(3-methylisoxazol-5-yl)butanoyl)pyrrolidine-2-carboxamide] | 95.0 | 99.7 |
| Cc1cc(C(C(=O)N2C[C@H](O)C[C@H]2C(=O)NCc2ccc(-c3scnc3C)cc2OC2CCN(C(=O)C3CCN(c4nccc(Sc5cnc(N6CCC7(CC6)CO[C@@H](C)[C@H]7N)c(CO)n5)c4Cl)CC3)CC2)C(C)C)on1 (stereo partly drawn) [Example 98, (2S,4R)—N-(2-((1-(1-(4-((5-((3S,4S)-4-amino-3-methyl-2-oxa-8-azaspiro[4.5]decan-8-yl)-6-(hydroxymethyl)pyrazin-2-yl)thio)-3-chloropyridin-2-yl)piperidine-4-carbonyl)piperidin-4-yl)oxy)-4-(4-methylthiazol-5-yl)benzyl)-4-hydroxy-1-(3-methyl-2-(3-methylisoxazol-5-yl)butanoyl)pyrrolidine-2-carboxamide] | 99.6 | 99.7 |
| Cc1cnn(C(C(=O)N2C[C@H](O)C[C@H]2C(=O)NCc2ccc(-c3scnc3C)cc2OC2CCN(C(=O)C3CCN(c4nccc(Sc5cnc(N6CCC(C)(CN)CC6)cn5)c4Cl)CC3)CC2)C(C)C)c1 (stereo partly drawn) [Example 99, (2S,4R)—N-(2-((1-(1-(4-((5-(4-(aminomethyl)-4-methylpiperidin-1-yl)pyrazin-2-yl)thio)-3-chloropyridin-2-yl)piperidine-4-carbonyl)piperidin-4-yl)oxy)-4-(4-methylthiazol-5-yl)benzyl)-4-hydroxy-1-(3-methyl-2-(4-methyl-1H-pyrazol-1-yl)butanoyl)pyrrolidine-2-carboxamide] | −4.8 | 91.5 |
| Cc1cnn(C(C(=O)N2C[C@H](O)C[C@H]2C(=O)NCc2ccc(-c3scnc3C)cc2OC2CCN(C(=O)C3CCN(c4nccc(Sc5cnc(N6CCC(C)(CN)CC6)cn5)c4Cl)CC3)CC2)C(C)C)c1 (stereo partly drawn) [Example 100, (2S,4R)—N-(2-((1-(1-(4-((5-(4-(aminomethyl)-4-methylpiperidin-1-yl)pyrazin-2-yl)thio)-3-chloropyridin-2-yl)piperidine-4-carbonyl)piperidin-4-yl)oxy)-4-(4-methylthiazol-5-yl)benzyl)-4-hydroxy-1-(3-methyl-2-(4-methyl-1H-pyrazol-1-yl)butanoyl)pyrrolidine-2-carboxamide] | −65.7 | −18.7 |
| Cc1ncsc1-c1ccc(CNC(=O)[C@@H]2C[C@@H](O)CN2C(=O)[C@H](C(C)C)n2cc(C3CC3)nn2)c(OC2CCN(C(=O)C3CCN(c4nccc(Sc5cnc(N6CCC(C)(CN)CC6)cn5)c4Cl)CC3)CC2)c1 [Example 101, (2S,4R)—N-(2-((1-(1-(4-((5-(4-(aminomethyl)-4-methylpiperidin-1-yl)pyrazin-2-yl)thio)-3-chloropyridin-2-yl)piperidine-4-carbonyl)piperidin-4-yl)oxy)-4-(4-methylthiazol-5-yl)benzyl)-1-((S)-2-(4-cyclopropyl-1H-1,2,3-triazol-1-yl)-3-methylbutanoyl)-4-hydroxypyrrolidine-2-carboxamide] | 96.3 | 97.4 |
| Cc1ncsc1-c1ccc(CNC(=O)[C@@H]2C[C@@H](O)CN2C(=O)[C@H](C(C)C)n2cc(C3CC3)nn2)c(OC2CCN(C(=O)C3CCN(c4nccc(Sc5cnc(N6CCC(C)(N)CC6)cn5)c4Cl)CC3)CC2)c1 [Example 102, (2S,4R)—N-(2-((1-(1-(4-((5-(4-amino-4-methylpiperidin-1-yl)pyrazin-2-yl)thio)-3-chloropyridin-2-yl)piperidine-4-carbonyl)piperidin-4-yl)oxy)-4-(4-methylthiazol-5-yl)benzyl)-1-((S)-2-(4-cyclopropyl-1H-1,2,3-triazol-1-yl)-3-methylbutanoyl)-4-hydroxypyrrolidine-2-carboxamide] | 99.4 | 99.8 |
| Cc1ncsc1-c1ccc(CNC(=O)[C@@H]2C[C@@H](O)CN2C(=O)[C@H](C(C)C)n2cc(C3CC3)nn2)c(OC2CCN(C(=O)C3CCN(c4nccc(Sc5cnc(N6CCC7(CC6)CO[C@@H](C)[C@H]7N)cn5)c4Cl)CC3)CC2)c1 [Example 103, (2S,4R)—N-(2-((1-(1-(4-((5-((3S,4S)-4-amino-3-methyl-2-oxa-8-azaspiro[4.5]decan-8-yl)pyrazin-2-yl)thio)-3-chloropyridin-2-yl)piperidine-4-carbonyl)piperidin-4-yl)oxy)-4-(4-methylthiazol-5-yl)benzyl)-1-((S)-2-(4-cyclopropyl-1H-1,2,3-triazol-1-yl)-3-methylbutanoyl)-4-hydroxypyrrolidine-2-carboxamide] | 99.9 | 99.7 |
| Cc1ncsc1-c1ccc(CNC(=O)[C@@H]2C[C@@H](O)CN2C(=O)[C@H](C(C)C)n2cc(C3CC3)nn2)c(OC2CCN(C(=O)C3CCN(c4nccc(Sc5cnc(N6CCC(C)(CN)CC6)c(CO)n5)c4Cl)CC3)CC2)c1 [Example 104, (2S,4R)—N-(2-((1-(1-(4-((5-(4-(aminomethyl)-4-methylpiperidin-1-yl)-6-(hydroxymethyl)pyrazin-2-yl)thio)-3-chloropyridin-2-yl)piperidine-4-carbonyl)piperidin-4-yl)oxy)-4-(4-methylthiazol-5-yl)benzyl)-1-((S)-2-(4-cyclopropyl-1H-1,2,3-triazol-1-yl)-3-methylbutanoyl)-4-hydroxypyrrolidine-2-carboxamide] | 98.6 | 98.0 |
| Cc1ncsc1-c1ccc(CNC(=O)[C@@H]2C[C@@H](O)CN2C(=O)[C@H](C(C)C)n2cc(C3CC3)nn2)c(OC2CCN(C(=O)C3CCN(c4nccc(Sc5cnc(N6CCC(C)(N)CC6)c(CO)n5)c4Cl)CC3)CC2)c1 [Example 105, (2S,4R)—N-(2-((1-(1-(4-((5-(4-amino-4-methylpiperidin-1-yl)-6-(hydroxymethyl)pyrazin-2-yl)thio)-3-chloropyridin-2-yl)piperidine-4-carbonyl)piperidin-4-yl)oxy)-4-(4-methylthiazol-5-yl)benzyl)-1-((S)-2-(4-cyclopropyl-1H-1,2,3-triazol-1-yl)-3-methylbutanoyl)-4-hydroxypyrrolidine-2-carboxamide] | 98.4 | 97.9 |
| Cc1ncsc1-c1ccc(CNC(=O)[C@@H]2C[C@@H](O)CN2C(=O)[C@H](C(C)C)n2cc(C3CC3)nn2)c(OC2CCN(C(=O)C3CCN(c4nccc(Sc5cnc(N6CCC7(CC6)CO[C@@H](C)[C@H]7N)c(CO)n5)c4Cl)CC3)CC2)c1 [Example 106, (2S,4R)—N-(2-((1-(1-(4-((5-((3S,4S)-4-amino-3-methyl-2-oxa-8-azaspiro[4.5]decan-8-yl)-6-(hydroxymethyl)pyrazin-2-yl)thio)-3-chloropyridin-2-yl)piperidine-4-carbonyl)piperidin-4-yl)oxy)-4-(4-methylthiazol-5-yl)benzyl)-1-((S)-2-(4-cyclopropyl-1H-1,2,3-triazol-1-yl)-3-methylbutanoyl)-4-hydroxypyrrolidine-2-carboxamide] | 99.1 | 97.3 |
| Cc1ncsc1-c1ccc(CNC(=O)[C@@H]2C[C@@H](O)CN2C(=O)[C@@H](n2cc(C3CC3)nn2)C(C)(C)C)c(OC2CCN(C(=O)C3CCN(c4nccc(Sc5cnc(N6CCC(C)(CN)CC6)cn5)c4Cl)CC3)CC2)c1 [Example 107, (2S,4R)—N-(2-((1-(1-(4-((5-(4-(aminomethyl)-4-methylpiperidin-1-yl)pyrazin-2-yl)thio)-3-chloropyridin-2-yl)piperidine-4-carbonyl)piperidin-4-yl)oxy)-4-(4-methylthiazol-5-yl)benzyl)-1-((S)-2-(4-cyclopropyl-1H-1,2,3-triazol-1-yl)-3,3-dimethylbutanoyl)-4-hydroxypyrrolidine-2-carboxamide] | 96.5 | 99.2 |
| Cc1cn([C@H](C(=O)N2C[C@H](O)C[C@H]2C(=O)NCc2ccc(-c3scnc3C)cc2OC2CCN(C(=O)C3CCN(c4nccc(Sc5cnc(N6CCC(C)(CN)CC6)c(CO)n5)c4Cl)CC3)CC2)C(C)C)nn1 [Example 108, (2S,4R)—N-(2-((1-(1-(4-((5-(4-(aminomethyl)-4-methylpiperidin-1-yl)-6-(hydroxymethyl)pyrazin-2-yl)thio)-3-chloropyridin-2-yl)piperidine-4-carbonyl)piperidin-4-yl)oxy)-4-(4-methylthiazol-5-yl)benzyl)-4-hydroxy-1-((S)-3-methyl-2-(4-methyl-1H-1,2,3-triazol-1-yl)butanoyl)pyrrolidine-2-carboxamide] | 99.1 | 99.6 |
